The values below come from ChEMBL document CHEMBL3856198, “Synthesis of novel 17-(4'-formyl)pyrazolylandrosta-5,16-dienes and their derivatives as potent 17α-hydroxylase/C17,20-lyase inhibitors or antiproliferative agents depending on the substitution pattern of the heteroring” (Eur J Med Chem, 2016).

Common to all, as to format: functional
A short description of assay [1]: Growth inhibition of human MCF7 cells at 30 uM after 72 hrs by MTT assay. The conditions noted are these: MCF7, 72 h, read-out: GI. Background: Tetrazolium dyes change colour on reduction, which living cells bring about.
Assay [2] in a line: Growth inhibition of human MDA-MB-231 cells at 30 uM after 72 hrs by MTT assay. The conditions noted are these: MDA-MB-231, 72 h, read-out: GI.
The nature of assay [3]: Growth inhibition of human MCF7 cells at 10 uM after 72 hrs by MTT assay. The conditions noted are these: MCF7, 72 h, read-out: GI.
Assay [4] can be described thus: Growth inhibition of human MDA-MB-231 cells at 10 uM after 72 hrs by MTT assay. As to conditions: MDA-MB-231, 72 h, read-out: GI.
Assay [5] can be described thus: Growth inhibition of human MDA-MB-361 cells at 10 uM after 72 hrs by MTT assay. As to conditions: MDA-MB-361, 72 h, read-out: GI.
Assay [6] can be described thus: Growth inhibition of human MDA-MB-361 cells at 30 uM after 72 hrs by MTT assay. As to conditions: MDA-MB-361, 72 h, read-out: GI.
Assay [7] in a line: Growth inhibition of human T47D cells at 30 uM after 72 hrs by MTT assay. The conditions noted are these: read-out: GI.
The nature of assay [8]: Growth inhibition of human T47D cells at 10 uM after 72 hrs by MTT assay. The conditions noted are these: read-out: GI.

For the compound `C[C@]12CC[C@H](O)CC1=CC[C@@H]1[C@@H]2CC[C@]2(C)C(c3nn(-c4ccc(C#N)cc4)cc3C=O)=CC[C@@H]12`, the inhibition of growth at 30 µM in assay [1] was found to be 80.2%; in assay [2], 93.1%; in assay [6], 74.3%; in assay [7], 86.4%. Further, the inhibition of growth at 10 µM in assay [3] is 64.4%; in assay [4] it was 49.1%; in assay [5], 60.8%; in assay [8] it was 66.9%.

Take `CC(=O)O[C@H]1CC[C@@]2(C)C(=CC[C@@H]3[C@@H]2CC[C@]2(C)C(c4nn(-c5ccc([N+](=O)[O-])cc5)cc4C=O)=CC[C@@H]32)C1`: the inhibition of growth at 30 µM in assay [1] was determined as 51.9%; in assay [2], 22.7%; in assay [6] it was 56.2%; in assay [7] it was 62.8%. For the same compound, the inhibition of growth at 10 µM in assay [3], in assay [4], in assay [5] and in assay [8] was less than 20% each time.

As to `Cc1ccc(-n2cc(C=O)c(C3=CC[C@H]4[C@@H]5CC=C6C[C@@H](O)CC[C@]6(C)[C@H]5CC[C@]34C)n2)cc1`, the inhibition of growth at 30 µM in assay [1] came to 72.6%; in assay [2], 76.9%; in assay [6] it was 75.8%; in assay [7] it was 74.8%. Besides, the inhibition of growth at 10 µM is 47.8% in assay [3], 58.9% in assay [4], 57.3% in assay [5] and 47.2% in assay [8].

For `C[C@]12CC[C@H](O)CC1=CC[C@@H]1[C@@H]2CC[C@]2(C)C(c3nn(-c4ccc([N+](=O)[O-])cc4)cc3C=O)=CC[C@@H]12`, the inhibition of growth at 30 µM was determined as 75.1% in assay [1], 77% in assay [2], 80% in assay [6] and 79.6% in assay [7]. The inhibition of growth at 10 µM amounted to 64.8% in assay [3], 51.8% in assay [4], 63.9% in assay [5] and 72.5% in assay [8].

As to `C[C@]12CC[C@H](O)CC1=CC[C@@H]1[C@@H]2CC[C@]2(C)C(c3nn(-c4ccc(Cl)cc4)cc3C=O)=CC[C@@H]12`, the inhibition of growth at 30 µM stood at 55.7% in assay [1], 41.1% in assay [2], 60.5% in assay [6] and 68.4% in assay [7]. Also, the inhibition of growth at 10 µM in assay [3] was 32.1%; in assay [4], less than 20%; in assay [5], 48.4%; in assay [8], 43.6%.

For the compound `CC(=O)O[C@H]1CC[C@@]2(C)C(=CC[C@@H]3[C@@H]2CC[C@]2(C)C(c4nn(-c5ccc(Cl)cc5)cc4C=O)=CC[C@@H]32)C1`, the inhibition of growth at 30 µM in assay [1] was determined as 65.2%; in assay [2], 56.2%; in assay [6], 63.7%; in assay [7] it was 62.8%. The inhibition of growth at 10 µM in assay [3] is 43.6%; in assay [4], less than 20%; in assay [5], 32.1%; in assay [8], 44.8%.

As for `COc1ccc(-n2cc(CO)c(C3=CC[C@H]4[C@@H]5CC=C6C[C@@H](O)CC[C@]6(C)[C@H]5CC[C@]34C)n2)cc1`, the inhibition of growth at 30 µM in assay [1] was found to be 75.5%; in assay [2], 92.9%; in assay [6] it was 86.7%; in assay [7] it was 79.6%. The inhibition of growth at 10 µM in assay [3] is 51.8%; in assay [4], 69.3%; in assay [5], 64.7%; in assay [8], 62.2%.

`C[C@]12CC[C@H](O)CC1=CC[C@@H]1[C@@H]2CC[C@]2(C)C(c3nn(-c4ccc(Br)cc4)cc3C=O)=CC[C@@H]12`: the inhibition of growth at 30 µM was found to be 61% in assay [1], 55.8% in assay [2], 60.4% in assay [6] and 70.7% in assay [7]. Further, the inhibition of growth at 10 µM was 22.2% in assay [3], less than 20% in assay [4], 48.1% in assay [5] and 36.2% in assay [8].

On to `Cc1ccc(-n2cc(CO)c(C3=CC[C@H]4[C@@H]5CC=C6C[C@@H](O)CC[C@]6(C)[C@H]5CC[C@]34C)n2)cc1`, for which the inhibition of growth at 30 µM in assay [1] amounted to 83.3%; in assay [2] it was 96.6%; in assay [6], 89.4%; in assay [7], 90.7%. Besides, the inhibition of growth at 10 µM in assay [3] was 64.8%; in assay [4], 72.4%; in assay [5], 73.5%; in assay [8], 68.7%.

With `CC(=O)O[C@H]1CC[C@@]2(C)C(=CC[C@@H]3[C@@H]2CC[C@]2(C)C(c4nn(C)cc4C=O)=CC[C@@H]32)C1`, the inhibition of growth at 30 µM in assay [1] was 61.9%; in assay [2], 26.2%; in assay [6] it was 55.6%; in assay [7], 65.2%. Moreover, the inhibition of growth at 10 µM in assay [3] is 30.9%; in assay [4], less than 20%; in assay [5], less than 20%; in assay [8], less than 20%.

Take `CC(=O)O[C@H]1CC[C@@]2(C)C(=CC[C@@H]3[C@@H]2CC[C@]2(C)C(c4nn(C(C)=O)cc4C#N)=CC[C@@H]32)C1`: the inhibition of growth at 30 µM in assay [1] turned out to be 70%; in assay [2], 61.3%; in assay [6] it was 64.6%; in assay [7], 63.9%. In addition, the inhibition of growth at 10 µM in assay [3], in assay [4], in assay [5] and in assay [8] was less than 20% in each case.

Take `Cn1cc(C#N)c(C2=CC[C@H]3[C@@H]4CC=C5C[C@@H](O)CC[C@]5(C)[C@H]4CC[C@]23C)n1`: the inhibition of growth at 30 µM in assay [1] is 40.9%; in assay [2], 32.6%; in assay [6], 32.5%; in assay [7] it was 29.6%. The inhibition of growth at 10 µM in assay [3], in assay [4], in assay [5] and in assay [8] was less than 20% in each case.

As for `CC(=O)O[C@H]1CC[C@@]2(C)C(=CC[C@@H]3[C@@H]2CC[C@]2(C)C(c4nn(C)cc4C#N)=CC[C@@H]32)C1`, the inhibition of growth at 30 µM was 50.3% in assay [1], 34.9% in assay [2], 53.1% in assay [6] and 60.4% in assay [7]. In addition, the inhibition of growth at 10 µM in assay [3] was 41.8%; in assay [4], 30.5%; in assay [5], 30.8%; in assay [8], 21.7%.

`CC(=O)O[C@H]1CC[C@@]2(C)C(=CC[C@@H]3[C@@H]2CC[C@]2(C)C(c4n[nH]cc4C=O)=CC[C@@H]32)C1`: the inhibition of growth at 30 µM was 83.5% in assay [1], less than 20% in assay [2], 64.2% in assay [6] and 63.3% in assay [7]. Further, the inhibition of growth at 10 µM in assay [3], in assay [4], in assay [5] and in assay [8] was less than 20% each time.

Regarding `Cn1cc(C=O)c(C2=CC[C@H]3[C@@H]4CC=C5C[C@@H](O)CC[C@]5(C)[C@H]4CC[C@]23C)n1`, the inhibition of growth at 30 µM was determined as 48.6% in assay [1], 93.4% in assay [2], 70% in assay [6] and 70.4% in assay [7]. Besides, the inhibition of growth at 10 µM was found to be 42.2% in assay [3], 86.8% in assay [4], 62.1% in assay [5] and 62% in assay [8].

For `COc1ccc(-n2cc(C=O)c(C3=CC[C@H]4[C@@H]5CC=C6C[C@@H](OC(C)=O)CC[C@]6(C)[C@H]5CC[C@]34C)n2)cc1`, the inhibition of growth at 30 µM is 77.7% in assay [1], 54.4% in assay [2], 66.7% in assay [6] and 69.1% in assay [7]. Moreover, the inhibition of growth at 10 µM in assay [3] was 43.8%; in assay [4], less than 20%; in assay [5], 32.8%; in assay [8], 33.9%.

Turning to `Cn1cc(CO)c(C2=CC[C@H]3[C@@H]4CC=C5C[C@@H](O)CC[C@]5(C)[C@H]4CC[C@]23C)n1`, the inhibition of growth at 30 µM is 33.8% in assay [1], 43.6% in assay [2], 47.1% in assay [6] and 56.4% in assay [7]. The inhibition of growth at 10 µM in assay [3] was less than 20%; in assay [4], less than 20%; in assay [5] it was 32.5%; in assay [8], 37.4%.

Take `CC(=O)O[C@H]1CC[C@@]2(C)C(=CC[C@@H]3[C@@H]2CC[C@]2(C)C(c4nn(-c5ccc(Br)cc5)cc4C=O)=CC[C@@H]32)C1`: the inhibition of growth at 30 µM worked out at 60.6% in assay [1], 51.9% in assay [2], 55.1% in assay [6] and 63.6% in assay [7]. In addition, the inhibition of growth at 10 µM in assay [3] was 41.2%; in assay [4] it was 21.7%; in assay [5], 33.8%; in assay [8] it was 51.4%.
